The text below walks through data of patent US9969677B2, “Histone acetyltransferase modulators and uses thereof” (THE TRUSTEES OF COLUMBIA UNIVERSITY IN THE CITY OF NEW YORK, priority 2010, dated 2018).

The conditions of data set [1]: cited from earlier work.
For data set [2] the following is noted: cited from earlier work. This is another data set of the same source.
In the next data set the target is T1, p300 (Homo sapiens, UniProt Q09472).
T1 construct: the catalytic domain of human CBP, PCAF, p300 and GCN5 (Enzo Life Sci., USA) can be used; purchased Enzo Life Sciences
T1 sequence (Q09472 1287-1663 limits assumed): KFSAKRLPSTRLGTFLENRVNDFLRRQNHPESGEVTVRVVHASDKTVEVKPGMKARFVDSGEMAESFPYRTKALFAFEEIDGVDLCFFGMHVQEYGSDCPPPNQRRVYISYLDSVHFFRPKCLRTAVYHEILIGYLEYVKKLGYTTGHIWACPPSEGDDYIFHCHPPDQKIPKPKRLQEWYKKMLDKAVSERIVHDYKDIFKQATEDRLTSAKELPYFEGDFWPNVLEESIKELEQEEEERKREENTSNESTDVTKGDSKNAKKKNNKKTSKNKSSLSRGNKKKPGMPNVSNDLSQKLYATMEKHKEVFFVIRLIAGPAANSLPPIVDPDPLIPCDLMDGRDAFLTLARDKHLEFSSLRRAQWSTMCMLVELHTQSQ
The experiment in a line: acetyltransferase activity assay (Enzo Life Sciences), P300. The data set is classed as biochemical. The following applies: for EC50: Table 1, activation of P300 according to b440. Here is the method:
(§1) Commercial human HATs (CBP, p300, GCN5, PCAF (Enzo Life Sciences), and Tip60 (SignalChem)) were assayed in an acetyltransferase activity assay (Enzo Life Sciences, Cat. No. ADI-907-026). Each well contained, in addition to a HAT, histone 3 as the acetyl acceptor, acetyl-CoA as the acetyl donor in the reaction mixture and compounds (1% DMSO) at the appropriate concentrations. The reaction was carried out at room temperature. Enzyme activity was measured by monitoring the breakage of the substrate acetyl-CoA by HAT using a proprietary detection mixture. The fluorescent signal was measured using a Tecan microplate reader (excitation: 380 nm, emission: 520 nm). The assay methodology was adopted as it provided a 10-fold higher signal/background ratio and was more sensitive than other assays. […] Compound 10 had no effect with either P300 or CBP (FIG. 13).

The next data set deals with T2, CBP (Homo sapiens, UniProt Q92793).
T2 construct: the catalytic domain of human CBP, PCAF, p300 and GCN5 (Enzo Life Sci., USA) can be used; purchased Enzo Life Sciences
T2 sequence (Q92793 1323-1700 limits assumed): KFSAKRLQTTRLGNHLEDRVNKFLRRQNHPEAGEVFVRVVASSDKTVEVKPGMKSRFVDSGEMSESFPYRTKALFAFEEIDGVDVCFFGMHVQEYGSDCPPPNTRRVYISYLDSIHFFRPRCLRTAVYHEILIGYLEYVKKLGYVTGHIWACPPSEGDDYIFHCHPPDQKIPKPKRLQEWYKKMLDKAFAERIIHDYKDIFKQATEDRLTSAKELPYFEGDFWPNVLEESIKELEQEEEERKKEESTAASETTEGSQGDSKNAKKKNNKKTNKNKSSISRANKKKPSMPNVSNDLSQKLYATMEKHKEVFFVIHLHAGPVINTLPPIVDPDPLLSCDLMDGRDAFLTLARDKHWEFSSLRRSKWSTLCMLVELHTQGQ
The experiment in a line: acetyltransferase activity assay (Enzo Life Sciences), CBP. The class given is biochemical. How it is done: as §1

The next data set concerns the target T3, Tip60 (Homo sapiens, UniProt Q92993).
T3 construct: purchased SignalChem
The experiment in a line: acetyltransferase activity assay (Enzo Life Sciences), Tip60. The data set is classed as biochemical. The settings on record: histone 3 acetyl acceptor, acetyl-CoA, room temperature. How it is done: as §1

The test system of data set [3] is Aβ-induced reduction of LTP. The experiment in a line: rescue of Aβ-induced reduction of LTP. An excerpt:
Synaptic dysfunction is a major hallmark of AD (Histol Histopathol, 1995. 10(2): p. 509-19; herein incorporated by reference in its entirety). An aspect of the drug screening protocol can include a measurement of the effect of compounds onto synaptic function. The APP/PS1 mouse presents an impairment of LTP by the age of 3 months (Ann Neurol, 2004. 55(6): p. 801-14; herein incorporated by reference in its entirety), and therefore permits a relatively fast assessment of synaptic function without waiting a long time for mice aging. LTP can be examined because it is a type of synaptic plasticity thought to underlie learning and memory. D rescues the Aβ-induced reduction of LTP, and other compounds can also be screened to identify those that can re-establish normal LTP. The compounds can be applied for 30 min. Controls can be performed on slices from APP/PS1 mice treated with vehicle, and WT mice treated with compound or vehicle. If the compounds re-establish normal LTP in APP/PS1 slices, one can conclude that the compounds rescue impairment of synaptic plasticity in APP/PS1 mice. Cognitive impairment can also be investigated (see Example 5).

The conditions of data set [4]: cited from earlier work. This is another data set of the same source.
The conditions of data set [5]: in vivo; cited from earlier work.
The test system of another data set is histone acetylation. The settings on record: cited from earlier work.
The test system of data set [6] is PC12 cells, sympathetic neurons and hippocampal neurons. The following applies: cited from earlier work.
The subject of data set [7] is APP/PS1 mouse. The following applies: APP/PS1 double transgenic mouse; cited from earlier work.
Data set [8] deals with APP/PS1 mouse. The following applies: APP/PS1 double transgenic mouse; cited from earlier work. This is another data set of the same source.
For data set [9] the following is noted: in vivo; cited from earlier work. The source holds these as a separate data set.

T3 sequence (Q92993 whole entry): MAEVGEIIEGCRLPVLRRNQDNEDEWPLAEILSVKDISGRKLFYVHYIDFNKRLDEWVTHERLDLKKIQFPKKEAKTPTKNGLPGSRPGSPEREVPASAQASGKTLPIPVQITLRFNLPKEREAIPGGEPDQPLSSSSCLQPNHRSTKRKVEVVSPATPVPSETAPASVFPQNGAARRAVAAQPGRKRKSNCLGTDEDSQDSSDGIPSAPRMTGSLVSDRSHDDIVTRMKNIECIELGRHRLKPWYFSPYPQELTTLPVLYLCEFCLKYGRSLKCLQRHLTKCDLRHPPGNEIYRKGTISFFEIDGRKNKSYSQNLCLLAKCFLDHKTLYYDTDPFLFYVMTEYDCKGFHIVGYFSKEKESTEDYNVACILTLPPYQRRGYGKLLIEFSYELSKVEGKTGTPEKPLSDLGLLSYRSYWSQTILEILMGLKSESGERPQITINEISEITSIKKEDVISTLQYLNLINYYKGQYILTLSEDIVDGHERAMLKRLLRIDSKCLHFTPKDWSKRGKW

Consider `CCOc1ccccc1C(=O)Nc1ccc(Cl)c(C(F)(F)F)c1` [CTB], for which, in [1], the solubility result is on record as “insoluble”. Further, the membrane permeability result in data set [2] is “membrane-impermeable”. With `CCCCCCCCCCCCCCCc1cccc(OCC)c1C(=O)Nc1ccc(Cl)c(C(F)(F)F)c1` [CTPB], in data set [1], the solubility entry is listed as “insoluble”. In addition, the membrane permeability entry in data set [2] was “membrane-impermeable”.

Take `CCOc1cccc(OCCN2CCCCC2)c1C(=O)Nc1ccc(Cl)c(C(F)(F)F)c1` [Compound 8, N-[4-chloro-3-(trifluoromethyl)phenyl]-2-ethoxy-6-[2-(piperidin-1-yl)ethoxy] benzamide]: the EC50 (as a rule, the concentration giving half of the maximal effect) on p300 amounted to 2.75 nM. The same measure, in the same setting: the figure for `CCOc1cccc(OCCN2CCOCC2)c1C(=O)Nc1ccc(Cl)c(C(F)(F)F)c1` [Compound 9, N-[4-chloro-3-(trifluoromethyl)phenyl]-2-ethoxy-6-(2-morpholinoethoxy) benzamide] is 2.07 nM. In the case of `CCOc1cccc(OCCN2CCNCC2)c1C(=O)Nc1ccc(Cl)c(C(F)(F)F)c1` [Compound 10, N-[4-chloro-3-(trifluoromethyl)phenyl]-2-ethoxy-6-[2-(piperazin-1-yl)ethoxy]benzamide], the “effect on CBP, initial screening (FIG. 13)” value (from here on “effect on CBP”) at CBP is reported as “no effect”. For the same compound, at p300, the EC50 is 2.1 nM and the “effect on P300, initial screening (FIG. 13)” value was “no effect”.

Consider `CCOc1cccc(OCCN2CCN(C)CC2)c1C(=O)Nc1ccc(Cl)c(C(F)(F)F)c1` [Compound 11, N-[4-chloro-3-(trifluoromethyl)phenyl]-2-ethoxy-6-[2-(4-methylpiperazin-1-yl)ethoxy]benzamide], for which the “effect on CBP” value on CBP was “no effect”. At p300, the EC50 was determined as 2.28 nM and the “effect on P300, initial screening (FIG. 13)” value is listed as “inhibited”. Consider `CCOc1cccc(OCCN(CC)CC)c1C(=O)Nc1ccc(Cl)c(C(F)(F)F)c1` [Compound 12, N-(4-chloro-3-(trifluoromethyl)phenyl)-2-(2-(diethylamino)ethoxy)-6-ethoxybenzamide], for which the EC50 at p300 turned out to be 1.47 nM. On the same count and under the same terms, under `CCOc1cccc(OCCCN(C)C)c1C(=O)Nc1ccc(Cl)c(C(F)(F)F)c1` [Compound 13, N-[4-chloro-3-(trifluoromethyl)phenyl]-2-[3-(dimethylamino)propoxy]-6-ethoxybenzamide] stands 1.32 nM. In the case of `CCOc1cccc(OCCN(C)C)c1C(=O)NCc1ccc(Cl)c(C(F)(F)F)c1` [Compound 16, N-[4-chloro-3-(trifluoromethyl)benzyl]-2-(2-(dimethylamino)ethoxy)-6-ethoxybenzamide], the “effect on CBP” value at CBP was “activated only CBP”. Also, the midpoint of the response at p300, the EC50, lay at 1.84 nM. As to `CCOc1cccc(OCCN(C)C)c1/C=N/c1ccc(Cl)c(C(F)(F)F)c1` [Compound 17, 4-chloro-N-[2-(2-(dimethylamino)ethoxy)-6-ethoxybenzylidene]-3-(trifluoromethyl)aniline], the “effect on CBP” value at CBP is listed as “activated only CBP”. Turning to `CCOc1ccc(OCCN(C)C)c(C(=O)Nc2ccc(Cl)c(C(F)(F)F)c2)c1` [Compound 18, N-(4-chloro-3-(trifluoromethyl)phenyl)-2-(2-(dimethylamino)ethoxy)-5-ethoxybenzamide], the “effect on CBP” value on CBP is listed as “activated only CBP”. In addition, on p300, the EC50 came to 2.3 nM. On to `CCOc1ccc(C(=O)Nc2ccc(Cl)c(C(F)(F)F)c2)c(OCCN(C)C)c1` [Compound 19, N-(4-chloro-3-(trifluoromethyl)phenyl)-2-(2-(dimethylamino)ethoxy)-4-ethoxybenzamide], for which the EC50 at p300 was determined as 1.85 nM. In the case of `CCOc1cccc(O)c1C(=O)Nc1ccc(Cl)c(C(F)(F)F)c1` [Compound 25, N-[4-chloro-3-(trifluoromethyl)phenyl]-2-ethoxy-6-hydroxybenzamide], at CBP, the “effect on CBP” value is “activated only CBP”. Still for that read-out and setting: under `CCOc1cccc(O)c1CNc1ccc(Cl)c(C(F)(F)F)c1` [Compound 26, 2-[((4-chloro-3-(trifluoromethyl)phenyl)amino)methyl]-3-ethoxyphenol] stands “activated only CBP”.

`CCOc1cccc(OCCN(C)C)c1C(=O)Nc1ccc(Cl)c(C(F)(F)F)c1` [Compound D, N-[4-chloro-3-(trifluoromethyl)phenyl]-2-[2-(dimethyl-amino)ethoxy]-6-ethoxybenzamide]: the EC50 at CBP (histone 3 acetyl acceptor, acetyl-CoA, room temperature) is 4.5 nM; at p300, 3.81 nM; on Tip60 it was > 200000 nM. Besides, the “Aβ-induced reduction of LTP” value in [3] is “rescues”. Moreover, the solubility entry in data set [1] is listed as “soluble”. Further, the membrane permeability result in [2] is given as “membrane permeable”. In addition, the BBB permeability result in [4] is listed as “BBB permeant”. Besides, the “safety in acute toxicity tests” value in data set [5] is given as “safe”. In addition, the histone acetylation result in the data set on histone acetylation was “increases histone acetylation”.

For the compound `CC(C)(SN=O)[C@H](N)C(=O)O` [S-nitroso penicillamine], the “protection against Aβ-induced neurotoxicity” value in data set [6] is on record as “exerts a neuroprotective effect”.

Take `CC(/C=C/C(=O)NO)=C\[C@@H](C)C(=O)c1ccc(N(C)C)cc1` [TSA]: the LTP entry in the data set with APP/PS1 mouse [7] is recorded as “ameliorates”. The “contextual fear conditioning (FC) / contextual learning” value with APP/PS1 mouse [8] is given as “ameliorates”. For the compound `Cc1cc(-c2ccccc2)nnc1NCCN1CCOCC1` [minaprine], the brain/blood ratio in [9] is given as > 2.

In the case of `COc1ccc(C2CNC(=O)C2)cc1OC1CCCC1` (stereo not shown) [rolipram], the LTP result with APP/PS1 mouse [7] is “ameliorates deficits”. The “contextual fear conditioning (FC) / contextual learning” value in the data set with APP/PS1 mouse [8] is reported as “ameliorates deficits”.
